Test systems include Hs-578T; IGROV-1; MCF7; BT-549; U-251; EKVX; MDA-N; LOX IMVI; A498; UACC-257; NCI/ADR-RES; OVCAR-5; SR; MDA-MB-231; NCI-H23; CCRF-CEM; HOP-62; T47D; RXF 393.
Holding throughout (experiment): NCI tumour cell line growth inhibition, 48 h

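96-well plates; 48 h exposure; 5 concentrations. Endpoints by linear interpolation between flanking doses. Not reached: highest tested concentration assigned. GI50 = concentration required for 50% inhibition of growth.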 The source made the active and inactive calls. No stated cut-off is given here; in the data, active = GI50 up to about 1.1 µM and inactive = higher.

As for `CC(C)(C)OC(=O)Cn1ncn(NC(=O)Cc2ccccc2)c1=S`, the GI50 with Hs-578T, with IGROV-1, in the test with MCF7, in the test on BT-549, in the test on U-251 and in the test on EKVX was > 10 µM (inactive) in each case. Moreover, the GI50 in the test on MDA-N, with LOX IMVI, in the test with A498, with UACC-257, with NCI/ADR-RES and in the test on OVCAR-5 was > 10 µM (inactive) throughout. In addition, the GI50 in the test on SR, with MDA-MB-231, with NCI-H23, with CCRF-CEM, in the test on HOP-62 and with T47D was > 10 µM (inactive) in each case.
`COc1ccc(C2NC(=O)Nc3c2c(=O)oc2c3ccc3ccccc32)cc1` (centres undefined): the GI50 was 42 µM (inactive) in the test with RXF 393; 41.4 µM (inactive) in the test on Hs-578T; 50.4 µM (inactive) with IGROV-1; 66.2 µM (inactive) in the test on MCF7; 41.6 µM (inactive) in the test on BT-549; 36.7 µM (inactive) in the test with U-251. Also, the GI50 in the test on EKVX was 23.7 µM (inactive); in the test on MDA-N, 59.2 µM (inactive); in the test with LOX IMVI, 74.6 µM (inactive); with A498, 31.4 µM (inactive); in the test on UACC-257, > 100 µM (inactive); in the test on NCI/ADR-RES, 69.5 µM (inactive). In addition, the GI50 in the test on OVCAR-5 is > 100 µM (inactive); with SR, 50 µM (inactive); with MDA-MB-231, 54 µM (inactive); in the test with NCI-H23 it was 52.6 µM (inactive); with CCRF-CEM, 37 µM (inactive); with HOP-62, 61.4 µM (inactive). Moreover, in the test on T47D, the GI50 is 31.1 µM (inactive).
Take `Cc1cc2nc(O)c(C(C)C(=O)c3ccc(Cl)cc3)nc2cc1C` (centres undefined): the GI50 with RXF 393 is 41.3 µM (inactive); in the test with Hs-578T, 54.6 µM (inactive); in the test on IGROV-1, 61.9 µM (inactive); in the test with MCF7 it was 27.5 µM (inactive); in the test on BT-549, 54.5 µM (inactive); in the test with U-251, 36.2 µM (inactive). For the same compound, the GI50 was 14.2 µM (inactive) in the test with EKVX; 17.8 µM (inactive) in the test on MDA-N; 35.6 µM (inactive) in the test on LOX IMVI; 23.1 µM (inactive) with A498; 16.6 µM (inactive) in the test with UACC-257; 28.6 µM (inactive) in the test with NCI/ADR-RES. Moreover, the GI50 in the test with OVCAR-5 is 56.1 µM (inactive); in the test with SR, 22.2 µM (inactive); with MDA-MB-231 it was 36.7 µM (inactive); with NCI-H23 it was 46.3 µM (inactive); in the test with CCRF-CEM, 26.7 µM (inactive); with HOP-62, 49.8 µM (inactive). For the same compound, the GI50 in the test on T47D is 32.3 µM (inactive).
With `CC(C)CCC[C@@H](C)[C@H]1CC[C@H]2[C@@H]3CC=C4C[C@@H](OC(=O)c5cccc6c(=O)c7ccccc7[nH]c56)CC[C@]4(C)[C@H]3CC[C@]12C`, the GI50 in the test with RXF 393, in the test on Hs-578T, in the test on IGROV-1, with MCF7, in the test on BT-549 and in the test on U-251 was > 75 µM (inactive) in each case. The GI50 with EKVX is > 75 µM (inactive); in the test on MDA-N it was 1.56 µM (inactive); in the test on LOX IMVI it was > 75 µM (inactive); in the test with A498 it was > 75 µM (inactive); with UACC-257, > 75 µM (inactive); in the test on NCI/ADR-RES it was > 75 µM (inactive). Moreover, the GI50 with OVCAR-5 is > 75 µM (inactive); in the test with SR it was > 75 µM (inactive); with MDA-MB-231 it was 3.91 µM (inactive); with NCI-H23, > 75 µM (inactive); in the test with HOP-62 it was 34.9 µM (inactive); with T47D, > 75 µM (inactive).
With `COC(=O)c1ccccc1CC1Cc2ccc3c(c2C1=O)CCCC3` (centres undefined), the GI50 was 60.7 µM (inactive) in the test on Hs-578T; > 100 µM (inactive) in the test on IGROV-1; 37.4 µM (inactive) in the test with MCF7; 49.1 µM (inactive) in the test on BT-549; 50.6 µM (inactive) in the test with U-251; 29.9 µM (inactive) in the test on EKVX. Further, the GI50 in the test on MDA-N is 35.8 µM (inactive); in the test on LOX IMVI it was 28.8 µM (inactive); in the test on A498, 52.8 µM (inactive); in the test on UACC-257 it was 29.5 µM (inactive); with NCI/ADR-RES, 23.6 µM (inactive); in the test on OVCAR-5 it was > 100 µM (inactive). The GI50 in the test on SR is 14 µM (inactive); in the test with MDA-MB-231 it was 29.7 µM (inactive); with NCI-H23, 35.3 µM (inactive); in the test with CCRF-CEM it was 23.8 µM (inactive); in the test on HOP-62, > 77.4 µM (inactive); in the test on T47D, 13.8 µM (inactive).
Consider `COc1cccc(N2C(=O)CS(=O)(=O)C2c2cccc(Oc3ccccc3)c2)c1` (centres undefined), for which the GI50 was 16.5 µM (inactive) in the test on RXF 393; 21.8 µM (inactive) with Hs-578T; 3.04 µM (inactive) with MCF7; 20.1 µM (inactive) in the test with BT-549; 16.7 µM (inactive) with U-251; 17 µM (inactive) with EKVX. Also, the GI50 in the test on MDA-N was 2.38 µM (inactive); with LOX IMVI it was 17.1 µM (inactive); with A498 it was 10.1 µM (inactive); in the test on UACC-257, 15.3 µM (inactive); in the test on NCI/ADR-RES, 9.42 µM (inactive); in the test on OVCAR-5 it was 34 µM (inactive). Also, the GI50 in the test on SR was 3.13 µM (inactive); with MDA-MB-231, 30.4 µM (inactive); with NCI-H23, 23.4 µM (inactive); in the test on CCRF-CEM, 26.9 µM (inactive); in the test on HOP-62 it was 25.2 µM (inactive); with T47D, 19.1 µM (inactive).
Turning to `O=[N+]([O-])c1ccc(/C(=N/c2ccccc2)SS/C(=N\c2ccccc2)c2ccc([N+](=O)[O-])o2)o1`, the GI50 in the test with RXF 393 was 1.75 µM (inactive); in the test with Hs-578T, 2.32 µM (inactive); with IGROV-1 it was 1.6 µM (inactive); in the test on MCF7 it was 0.444 µM (active); in the test with BT-549, 1.75 µM (inactive); with U-251, 0.955 µM (active). For the same compound, the GI50 in the test on EKVX is 1.77 µM (inactive); in the test on MDA-N, 2.72 µM (inactive); in the test on LOX IMVI, 1.49 µM (inactive); in the test on UACC-257, 2.11 µM (inactive); in the test on NCI/ADR-RES it was 1.86 µM (inactive); in the test on OVCAR-5, 2.08 µM (inactive). Moreover, the GI50 was 0.425 µM (active) in the test on SR; 2.74 µM (inactive) in the test with MDA-MB-231; 1.6 µM (inactive) in the test with NCI-H23; 2.03 µM (inactive) in the test with CCRF-CEM; 2.17 µM (inactive) with HOP-62; 2.2 µM (inactive) in the test on T47D.
In the case of `CCOC(=O)C1C(c2ccc(O)c(OC)c2)c2c(n[nH]c2O)CC1(C)O` (centres undefined), the GI50 is > 100 µM (inactive) in the test with Hs-578T; > 100 µM (inactive) in the test on IGROV-1; > 100 µM (inactive) with MCF7; 0.0159 µM (active) in the test with BT-549; > 100 µM (inactive) with U-251; > 100 µM (inactive) with EKVX. The GI50 with MDA-N, with LOX IMVI, in the test on A498, with UACC-257, in the test with NCI/ADR-RES and with OVCAR-5 was > 100 µM (inactive) throughout. Moreover, the GI50 in the test on SR, in the test with MDA-MB-231, in the test with NCI-H23, with CCRF-CEM, in the test on HOP-62 and in the test on T47D was > 100 µM (inactive) in each case.
On to `Nc1ccc(CCN2CCN(CCCc3ccccc3)CC2)cc1`, for which the GI50 in the test on Hs-578T was > 100 µM (inactive); with IGROV-1 it was 98.6 µM (inactive); in the test on MCF7 it was 28.6 µM (inactive); in the test with BT-549, 80.7 µM (inactive); with U-251 it was > 100 µM (inactive); in the test on EKVX, > 100 µM (inactive). The GI50 with MDA-N is > 100 µM (inactive); in the test with LOX IMVI, 63.7 µM (inactive); in the test on A498, > 100 µM (inactive); in the test on UACC-257 it was 62.4 µM (inactive); in the test with NCI/ADR-RES it was 86.9 µM (inactive); in the test with OVCAR-5, > 100 µM (inactive). Besides, the GI50 was 27.6 µM (inactive) in the test with SR; 60.8 µM (inactive) in the test with MDA-MB-231; 79.4 µM (inactive) with NCI-H23; 48.2 µM (inactive) in the test on CCRF-CEM; > 100 µM (inactive) in the test with HOP-62; 14.7 µM (inactive) in the test on T47D.
Turning to `COc1cc(/C=C2/C[C@H]3[C@@H]4CC=C5C[C@@H](OC(C)=O)CC[C@]5(C)[C@H]4CC[C@]3(C)NC2=O)cc(OC)c1OC`, the GI50 is 17.3 µM (inactive) with RXF 393; 24.2 µM (inactive) in the test with Hs-578T; 30 µM (inactive) with IGROV-1; 25.4 µM (inactive) with MCF7; 22.5 µM (inactive) in the test with BT-549; 19.5 µM (inactive) in the test on U-251. Also, the GI50 in the test on EKVX is 26.6 µM (inactive); in the test on MDA-N, 42.7 µM (inactive); in the test with LOX IMVI, 38.7 µM (inactive); with UACC-257 it was 26.5 µM (inactive); with NCI/ADR-RES, 20 µM (inactive); in the test with OVCAR-5 it was 27 µM (inactive). Besides, the GI50 in the test with SR was 47.6 µM (inactive); in the test with MDA-MB-231, 22 µM (inactive); in the test on NCI-H23 it was 23.9 µM (inactive); with CCRF-CEM, 49.4 µM (inactive); in the test with HOP-62, 26.6 µM (inactive); in the test on T47D, 22 µM (inactive).
In the case of `O=C(O)Cc1cccc2c(=O)c3ccccc3oc12`, the GI50 with Hs-578T, with IGROV-1, with MCF7, in the test on BT-549, with U-251 and in the test on EKVX was > 100 µM (inactive) in each case. Moreover, the GI50 in the test with MDA-N, in the test on LOX IMVI, with A498, in the test with UACC-257, in the test on NCI/ADR-RES and with SR was > 100 µM (inactive) in each case. Also, the GI50 is > 100 µM (inactive) in the test on MDA-MB-231; > 100 µM (inactive) with NCI-H23; > 100 µM (inactive) with CCRF-CEM; > 100 µM (inactive) in the test on HOP-62; 19.1 µM (inactive) in the test with T47D.

Source of the values: ChEMBL document CHEMBL1201862, “PubChem BioAssay data set” (2004).
